Laboratory results from PubChem BioAssay (NCI).
Where “and” joins values, the source holds several entries; their conditions need not be identical. Identical values can stand only once.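 Interpolation was linear, between the two tested concentrations surrounding the appropriate level; five concentrations were tested over 48 hours in 96-well plates. TGI: concentration producing complete growth inhibition.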 Where a SMILES comes first, the peptide text is derived from it. [ ]: non-standard residue; d: D form. The star is where a group is joined. NMeF = CN[CH](Cc1ccccc1)C(=O)O; NMeV = CN[CH](C(=O)O)C(C)C; Boc = CC(C)(C)OC(=O)*

These compounds were tested on SF-539 CNS (assay: DTP human tumour cell line panel, 48 h).
O=c1[nH]nc(-c2ccccc2)c2[nH]c3c4ccccc4ccc3c12 was tested, and the TGI was 3.17 µM. Compound C=CCCN1CCc2c([nH]c3ccccc23)C1C(=O)O (stereo not drawn) has a TGI greater than 100 µM. In the case of O=C1C(CN2CCCCC2)CCC1CN1CCCCC1 (stereo not drawn), the TGI is reported as 56.1 µM. c1ccc2c(c1)ccn2CCc1c[nH]c2ccccc12 showed a TGI greater than 10 µM. CC(C)[Si](OC1=C(C(=O)N(C)c2cccc(Cl)c2)CCCC1)(C(C)C)C(C)C showed a TGI of 40.4 µM. COc1cc(/C=C(\C#N)C(N)=O)cc(Br)c1O gave a TGI greater than 100 µM. In the case of COc1cc(C(=O)N(Cc2cccnc2)C(=S)N(Cc2cccnc2)C(=O)c2cc(OC)c(OC)c(OC)c2)cc(OC)c1OC, the TGI is reported as greater than 100 µM. In the case of COc1cc(CNCc2cc(OC)c(OC)c(OC)c2)cc(OC)c1OC, the TGI is reported as greater than 10 µM. Oc1c(CN2CCOCC2)ccc2cccnc12 was tested, and the TGI was greater than 10 µM. With CC1NC(=O)CC(c2ccccc2)N(N=O)C1c1ccccc1 (stereo not drawn) the TGI was 48.4 µM. In the case of CCOCc1nc2c(OC)cc(-c3nc4ccc(N5CCN(C)CC5)cc4[nH]3)c(OC)c2[nH]1, the TGI is reported as 36.1 µM. O=C(N/N=C\c1cccc2c([N+](=O)[O-])cccc12)Nc1ccccc1 showed a TGI of 27.3 µM. For CCCCN1C(=O)N(c2ccc(OCC)cc2)C2N(CCCC)C1C(C)(C)C2(C)C (stereo not drawn), the TGI was 41.9 µM. CON(C)C(=O)CNC(=O)OCC1c2ccccc2-c2ccccc21 showed a TGI greater than 100 µM. In the case of O=C(NNC(=S)Nc1cccc(Cl)c1)c1cc(-c2ccccc2)nc2ccccc12, the TGI is reported as 29.8 µM. In the case of Cc1cn(C2CC(N(O)Cc3ccccc3)C(CO[Si](C)(C)C(C)(C)C)O2)c(=O)[nH]c1=O (stereo not drawn), the TGI is reported as 33.2 µM and 29.5 µM. CC(=O)OC(/C=C/c1ccccc1)=C(OC(C)C)/C1=C(\c2ccccc2)SCCCSC1=O gave a TGI greater than 100 µM. Cc1ccc(-c2c(C#N)c(-c3ccc(Cl)cc3)c(C#N)c(=O)n2NS(=O)(=O)c2ccc(C)cc2)cc1 gave a TGI of 50.1 µM. Compound COc1cc(Cn2c3c(c4cc(O)ccc42)Cc2ccccc2C3=O)cc(OC)c1 has a TGI greater than 100 µM. With Cc1cc(S(=O)(=O)N=C2N(Cc3ccccc3)CCN2Cc2ccccc2)c(S)cc1Cl the TGI was greater than 100 µM. With CCCN1CCC(=O)N(CCC(F)(F)C(F)(F)C(F)(F)C(F)(F)C(F)(F)C(F)(F)F)C1=S the TGI was greater than 100 µM. For CSc1ccc2c(cc1=O)[C@@H](NC(=O)c1ccc(N)cc1)CCc1cc(O)c(O)c(O)c1-2, the TGI was 27.6 µM. CCOC(=O)CC1(C(=O)OCC)c2[nH]c3ccccc3c2CCN1Cc1ccccc1 (stereo not drawn) gave a TGI of 35.8 µM. CC(C)C(NC(=O)OC(C)(C)C)C(=O)N(C)C(Cc1ccccc1)C(=O)N(C)C(C(=O)O)C(C)C (stereo not drawn) (Boc-Val-[NMeF]-[NMeV]-OH; configuration not given here) gave a TGI greater than 100 µM. O=Cc1c(C(=O)O)[nH]c(=O)[nH]c1=O gave a TGI greater than 100 µM. With N=C(N)c1ccc(C(NC(=O)CNS(=O)(=O)c2ccc3ccccc3c2)P(=O)(Oc2ccccc2)Oc2ccccc2)cc1 (stereo not drawn) the TGI was 71.3 µM. With Nc1cc2[nH]c(=O)c(=O)[nH]c2cc1N the TGI was greater than 100 µM. Work on O=C1C=C(C2=CC(=O)C(=O)c3ccccc32)c2ccccc2C1=O yielded a TGI of 82.4 µM. Work on C(=Nc1ccc(-c2nc3ccccc3[nH]2)cc1)c1cccs1 yielded a TGI greater than 100 µM. C1=CC2SSSC2C1 (stereo not drawn) showed a TGI greater than 100 µM. In the case of C[N+](C)(C)CC1CCCCCCCCCCC1=O (stereo not drawn), the TGI is reported as greater than 100 µM. Compound CCN(CC)CCNc1nc2ccc([N+](=O)[O-])cc2[n+]([O-])n1 has a TGI of 54.2 µM. Compound Cn1c2c(c3ccccc31)CC1c3c(c4ccccc4n3C)CC21 (stereo not drawn) has a TGI greater than 100 µM. O=P(Nc1ccc(Cl)cc1)(Oc1ccccc1)N(CCCl)CCCl (stereo not drawn) gave a TGI greater than 100 µM.

What follows are compounds tested on CCRF-CEM leukemia (assay: DTP human tumour cell line panel, 48 h).
In the case of CCN(CC)C(=O)Cn1c(C)cc2ccccc21, the TGI is reported as greater than 100 µM. With CC1(C)NC2C(=O)c3c([nH]c4ccccc34)[C@]3(C)CCC1CC23 (stereo partly drawn) the TGI was greater than 100 µM. In the case of COc1ccc2ccccc2c1/C=C/C(=O)c1ccccc1, the TGI is reported as 4.17 µM. In the case of O=c1[nH]nc(-c2ccccc2)c2[nH]c3c4ccccc4ccc3c12, the TGI is reported as greater than 100 µM. Work on C=CCCN1CCc2c([nH]c3ccccc23)C1C(=O)O (stereo not drawn) yielded a TGI greater than 100 µM. O=C1C(CN2CCCCC2)CCC1CN1CCCCC1 (stereo not drawn) showed a TGI of 3.97 µM. Compound c1ccc2c(c1)ccn2CCc1c[nH]c2ccccc12 has a TGI greater than 10 µM. In the case of CC(C)[Si](OC1=C(C(=O)N(C)c2cccc(Cl)c2)CCCC1)(C(C)C)C(C)C, the TGI is reported as 49 µM. In the case of COc1cc(/C=C(\C#N)C(N)=O)cc(Br)c1O, the TGI is reported as greater than 100 µM. Compound COc1cc(C(=O)N(Cc2cccnc2)C(=S)N(Cc2cccnc2)C(=O)c2cc(OC)c(OC)c(OC)c2)cc(OC)c1OC has a TGI greater than 100 µM. COc1cc(CNCc2cc(OC)c(OC)c(OC)c2)cc(OC)c1OC showed a TGI of 5.86 µM. With Oc1c(CN2CCOCC2)ccc2cccnc12 the TGI was 7.56 µM. CC1NC(=O)CC(c2ccccc2)N(N=O)C1c1ccccc1 (stereo not drawn) gave a TGI of 71.6 µM. CCOCc1nc2c(OC)cc(-c3nc4ccc(N5CCN(C)CC5)cc4[nH]3)c(OC)c2[nH]1 showed a TGI of 34 µM. With O=C(N/N=C\c1cccc2c([N+](=O)[O-])cccc12)Nc1ccccc1 the TGI was 33.9 µM. Compound CCCCN1C(=O)N(c2ccc(OCC)cc2)C2N(CCCC)C1C(C)(C)C2(C)C (stereo not drawn) has a TGI of 63.7 µM. Compound CON(C)C(=O)CNC(=O)OCC1c2ccccc2-c2ccccc21 has a TGI greater than 100 µM. O=C(NNC(=S)Nc1cccc(Cl)c1)c1cc(-c2ccccc2)nc2ccccc12 showed a TGI of 32.2 µM. With Cc1cn(C2CC(N(O)Cc3ccccc3)C(CO[Si](C)(C)C(C)(C)C)O2)c(=O)[nH]c1=O (stereo not drawn) the TGI was greater than 100 µM.
